Four compounds from patent US4698352A, “4-oxo-1,4-dihydronicotinic acid derivatives, salts thereof, and antibacterial agents containing the same” (Toyama Chemical Co., Ltd., priority 1982, dated 1987) can be followed below.

Common to all, as to assay: Antibacterial activity (MIC), agar dilution
What all share (assay type): cell-based
(In general: Agar dilution tests growth on a series of plates holding different concentrations.)

One experiment concerns Aci. antitratus A-6. The conditions noted are these: 20 h, Aci. antitratus A-6; 10^6 cells per ml; 37° C., 20 hours; read-out: MIC. An excerpt:
(§1) The amount of bacteria inoculated was 10^4 cells per plate (10^6 cells per ml).

A further experiment has as its system E. coli NIHJ JC-2. As to conditions: Escherichia coli, NIHJJC2, 20 h, E. coli NIHJ JC-2; 10^6 cells per ml; 37° C., 20 hours; read-out: MIC.
Text: as §1

The test system of the next experiment is E. coli TK-111. As to conditions: Escherichia coli, TK111, 20 h, E. coli TK-111; 10^6 cells per ml; 37° C., 20 hours; read-out: MIC.
Text: as §1

A further experiment relates to Ent. cloacae IID977. The conditions noted are these: Enterobacter cloacae, IID977, 20 h, Ent. cloacae IID977; 10^6 cells per ml; 37° C., 20 hours; read-out: MIC.
Text: as §1

Another experiment deals with Kl. pneumoniae Y-41. The conditions noted are these: Klebsiella pneumoniae, Y41, 10^6 cells per ml, 37° C., 20 hours, read-out: MIC.
Text: as §1

A further experiment has as its system Kl. pneumoniae Y-50. As to conditions: Klebsiella pneumoniae, Y50, 20 h, 10^6 cells per ml, 37° C., read-out: MIC.
Text: as §1

Another experiment deals with Pro. mirabilis T-111. The conditions noted are these: Proteus mirabilis, T111, 10^6 cells per ml, 37° C., 20 hours, read-out: MIC.
Text: as §1

The subject of another experiment is Pro. morganii T-216. As to conditions: Morganella morganii, T216, 10^6 cells per ml, 37° C., 20 hours, read-out: MIC.
Text: as §1

A further experiment relates to Pro. vulgaris GN3027. As to conditions: Proteus vulgaris, GN3027, 20 h, Pro. vulgaris GN3027; 10^6 cells per ml; 37° C., 20 hours; read-out: MIC.
Text: as §1

The subject of the next experiment is Ps. aeruginosa IFO3445. As to conditions: Pseudomonas aeruginosa.
Text: as §1

Another experiment concerns Ps. aeruginosa S-68. The conditions noted are these: Pseudomonas aeruginosa, S68; Ps. aeruginosa S-68; 10^6 cells per ml; 37° C., 20 hours; read-out: MIC.
Text: as §1

The subject of the next experiment is St. aureus FDA209P. The conditions noted are these: Staphylococcus aureus, FDA209P, 20 h, St. aureus FDA209P; 10^6 cells per ml; 37° C., 20 hours; read-out: MIC.
Text: as §1

In another experiment the test system is E. coli TK-3*. As to conditions: Escherichia coli, 20 h, E. coli TK-3, penicillinase-producing; 10^6 cells per ml; read-out: MIC.
Text: as §1
(§2) * Penicillinase-producing bacteria

The subject of the next experiment is Kl. pneumoniae Y-4*. As to conditions: Klebsiella pneumoniae, 20 h, Kl. pneumoniae Y-4, penicillinase-producing; 10^6 cells per ml; read-out: MIC.
Text: as §1, §2

In a further experiment the test system is Ps. aeruginosa GN3379*. As to conditions: Pseudomonas aeruginosa, Ps. aeruginosa GN3379, penicillinase-producing, 10^6 cells per ml.
Text: as §1, §2

The test system of another experiment is St. aureus F-137*. As to conditions: Staphylococcus aureus, 20 h, St. aureus F-137, penicillinase-producing; 10^6 cells per ml; read-out: MIC.
Text: as §1, §2

The next experiment deals with E. coli GN5482**. The conditions noted are these: Escherichia coli, 20 h; E. coli GN5482, cephalospolinase-producing; 10^6 cells per ml; read-out: MIC.
Text: as §1
(§3) ** Cephalospolinase-producing bacteria

Another experiment deals with Pro. vulgaris GN76**. The conditions noted are these: Proteus vulgaris, 20 h; Pro. vulgaris GN76, cephalospolinase-producing; 10^6 cells per ml; read-out: MIC.
Text: as §1, §3

Another experiment has as its system Ps. aeruginosa GN918**. The conditions noted are these: Pseudomonas aeruginosa, Ps. aeruginosa GN918, cephalospolinase-producing, 10^6 cells per ml.
Text: as §1, §3

Where [1] appears, read: Ps. aeruginosa IFO3445, 10^6 cells per ml, 37° C., 20 hours, read-out: MIC.

In brackets after ≈: the same amount, converted by molar mass. Read-outs that look alike come from different tables or passages of the source.

A word on the MIC: it is the smallest concentration in the dilution series that meets the test's criterion for growth inhibition. Consider `O=C(O)c1cn(-c2ccc(O)cc2F)c(C2CC=CCC2)cc1=O` (stereo not shown), for which the MIC was 3.13 µg/mL (≈ 9.5 µM) with Aci. antitratus A-6; 1.56 µg/mL (≈ 4.74 µM) in the experiment on E. coli NIHJ JC-2; 0.39 µg/mL (≈ 1.18 µM) in the experiment with E. coli TK-111; 3.13 µg/mL (≈ 9.5 µM) in the experiment on Ent. cloacae IID977; 6.25 µg/mL (≈ 19 µM) in the experiment on Kl. pneumoniae Y-41; 0.78 µg/mL (≈ 2.37 µM) with Kl. pneumoniae Y-50. Further, the MIC in the experiment with Pro. mirabilis T-111 was found to be 12.5 µg/mL (≈ 38 µM); in the experiment on Pro. morganii T-216, 3.13 µg/mL (≈ 9.5 µM); in the experiment with Pro. vulgaris GN3027 it was 0.1 µg/mL (≈ 0.304 µM); in the experiment with Ps. aeruginosa IFO3445 (setting [1]) it was 12.5 µg/mL (≈ 38 µM); with Ps. aeruginosa S-68, 12.5 µg/mL (≈ 38 µM); in the experiment with St. aureus FDA209P it was 0.39 µg/mL (≈ 1.18 µM). Further, the MIC was determined as 3.13 µg/mL (≈ 9.5 µM) with E. coli TK-3*; 6.25 µg/mL (≈ 19 µM) in the experiment on Kl. pneumoniae Y-4*; 12.5 µg/mL (≈ 38 µM) in the experiment with Ps. aeruginosa GN3379* (20 h, read-out: MIC); 0.39 µg/mL (≈ 1.18 µM) in the experiment on St. aureus F-137*; 0.39 µg/mL (≈ 1.18 µM) in the experiment on E. coli GN5482**; 0.78 µg/mL (≈ 2.37 µM) with Pro. vulgaris GN76**. The MIC with Ps. aeruginosa GN918** (20 h, read-out: MIC) was found to be 1.56 µg/mL (≈ 4.74 µM).

As for `CC(=O)Oc1ccc(-n2cc(C(=O)O)c(=O)cc2-c2cc3ccccc3s2)c(F)c1`, the MIC is 0.2 µg/mL (≈ 0.472 µM) with Aci. antitratus A-6; 0.39 µg/mL (≈ 0.921 µM) with E. coli NIHJ JC-2; no more than 0.05 µg/mL in the experiment with E. coli TK-111; 0.78 µg/mL (≈ 1.84 µM) in the experiment on Ent. cloacae IID977; 3.13 µg/mL (≈ 7.39 µM) with Kl. pneumoniae Y-41; 0.39 µg/mL (≈ 0.921 µM) in the experiment with Kl. pneumoniae Y-50. In addition, the MIC with Pro. mirabilis T-111 was determined as 1.56 µg/mL (≈ 3.68 µM); with Pro. morganii T-216, 1.56 µg/mL (≈ 3.68 µM); in the experiment on Pro. vulgaris GN3027, 0.1 µg/mL (≈ 0.236 µM); in the experiment with Ps. aeruginosa IFO3445 (IFO3445, 20 h) it was 3.13 µg/mL (≈ 7.39 µM); with Ps. aeruginosa S-68, 1.56 µg/mL (≈ 3.68 µM); in the experiment on St. aureus FDA209P, 0.1 µg/mL (≈ 0.236 µM). Moreover, the MIC in the experiment on E. coli TK-3* is 0.39 µg/mL (≈ 0.921 µM); in the experiment with Kl. pneumoniae Y-4*, 3.13 µg/mL (≈ 7.39 µM); with Ps. aeruginosa GN3379* (GN3379, 20 h), 3.13 µg/mL (≈ 7.39 µM); with St. aureus F-137* it was no more than 0.05 µg/mL; in the experiment on E. coli GN5482**, no more than 0.05 µg/mL; with Pro. vulgaris GN76**, 0.39 µg/mL (≈ 0.921 µM). Also, the MIC in the experiment on Ps. aeruginosa GN918** (20 h, read-out: MIC) was determined as 6.25 µg/mL (≈ 14.8 µM).

Turning to `CN(C)c1ccc(-c2cc(=O)c(C(=O)O)cn2-c2cccc3c(O)cccc23)cc1`, the MIC in the experiment with Aci. antitratus A-6 was 0.39 µg/mL (≈ 0.974 µM); in the experiment on E. coli NIHJ JC-2 it was 0.39 µg/mL (≈ 0.974 µM); with E. coli TK-111 it was no more than 0.05 µg/mL; in the experiment on Ent. cloacae IID977, 1.56 µg/mL (≈ 3.9 µM); in the experiment on Kl. pneumoniae Y-41, 6.25 µg/mL (≈ 15.6 µM); in the experiment with Kl. pneumoniae Y-50, 0.78 µg/mL (≈ 1.95 µM). For the same compound, the MIC with Pro. mirabilis T-111 was determined as 3.13 µg/mL (≈ 7.82 µM); with Pro. morganii T-216, 3.13 µg/mL (≈ 7.82 µM); with Pro. vulgaris GN3027, 1.56 µg/mL (≈ 3.9 µM); in the experiment on Ps. aeruginosa IFO3445 (setting [1]), 12.5 µg/mL (≈ 31.2 µM); in the experiment on Ps. aeruginosa S-68 it was 12.5 µg/mL (≈ 31.2 µM); in the experiment with St. aureus FDA209P, 0.1 µg/mL (≈ 0.25 µM). Besides, the MIC in the experiment on E. coli TK-3* was 1.56 µg/mL (≈ 3.9 µM); in the experiment with Kl. pneumoniae Y-4*, 6.25 µg/mL (≈ 15.6 µM); with Ps. aeruginosa GN3379* (20 h, read-out: MIC), greater than 100 µg/mL; with St. aureus F-137*, no more than 0.05 µg/mL; with E. coli GN5482**, no more than 0.05 µg/mL; with Pro. vulgaris GN76**, 1.56 µg/mL (≈ 3.9 µM). In addition, in the experiment with Ps. aeruginosa GN918** (GN918, 20 h), the MIC came to 6.25 µg/mL (≈ 15.6 µM).

For the compound `O=C(O)c1cn(-c2ccc(O)cc2)c(-c2cc3ccccc3s2)cc1=O`, the MIC with Aci. antitratus A-6 is 0.2 µg/mL (≈ 0.55 µM); with E. coli NIHJ JC-2, 0.2 µg/mL (≈ 0.55 µM); in the experiment on E. coli TK-111, no more than 0.05 µg/mL; with Ent. cloacae IID977, 0.39 µg/mL (≈ 1.07 µM); in the experiment with Kl. pneumoniae Y-41 it was 0.78 µg/mL (≈ 2.15 µM); with Kl. pneumoniae Y-50 it was 0.2 µg/mL (≈ 0.55 µM). The minimal inhibitory concentration (MIC) with Pro. mirabilis T-111 was 0.78 µg/mL (≈ 2.15 µM); in the experiment with Pro. morganii T-216 it was 0.39 µg/mL (≈ 1.07 µM); with Pro. vulgaris GN3027, no more than 0.05 µg/mL; in the experiment with Ps. aeruginosa IFO3445 (setting [1]), 3.13 µg/mL (≈ 8.61 µM); with Ps. aeruginosa S-68 it was 0.78 µg/mL (≈ 2.15 µM); in the experiment on St. aureus FDA209P, no more than 0.05 µg/mL. For the same compound, the MIC in the experiment on E. coli TK-3* is 0.39 µg/mL (≈ 1.07 µM); with Kl. pneumoniae Y-4* it was 0.78 µg/mL (≈ 2.15 µM); in the experiment on Ps. aeruginosa GN3379* (20 h, read-out: MIC), 3.13 µg/mL (≈ 8.61 µM); in the experiment on St. aureus F-137*, no more than 0.05 µg/mL; with E. coli GN5482** it was no more than 0.05 µg/mL; with Pro. vulgaris GN76** it was 0.2 µg/mL (≈ 0.55 µM). For the same compound, in the experiment with Ps. aeruginosa GN918** (20 h, read-out: MIC), the MIC worked out at 3.13 µg/mL (≈ 8.61 µM).
